T1: human Mcm10 internal domain (hMcm10-ID) (Homo sapiens, UniProt Q7L590)
T1 construct: hMcm10-ID (residues 237 to 436) were expressed in E. coli strain BL21(DE3); 6xHis (HRV 3C site) (N, cleaved yes); made in house; host or cells: E. coli BL21(DE3)
T1 sequence (Q7L590 237-436): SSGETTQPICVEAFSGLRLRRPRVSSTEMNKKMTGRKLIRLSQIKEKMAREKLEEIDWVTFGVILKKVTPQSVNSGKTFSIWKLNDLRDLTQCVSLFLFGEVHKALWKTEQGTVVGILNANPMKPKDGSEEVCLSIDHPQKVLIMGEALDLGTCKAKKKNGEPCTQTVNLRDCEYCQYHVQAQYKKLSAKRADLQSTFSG

T2: full-length Xenopus Mcm10 (xMcm10-FL) (Xenopus laevis, UniProt Q5EAW4)
T2 construct: The full-length xMcm10 was expressed with MBP fused onto the N-terminus and 6x-His tag attached to the C-terminus; 6xHis (C); made in house; host or cells: E. coli BL21(DE3), as for the ID constructs ('as described above')
T2 sequence (Q5EAW4 1-860): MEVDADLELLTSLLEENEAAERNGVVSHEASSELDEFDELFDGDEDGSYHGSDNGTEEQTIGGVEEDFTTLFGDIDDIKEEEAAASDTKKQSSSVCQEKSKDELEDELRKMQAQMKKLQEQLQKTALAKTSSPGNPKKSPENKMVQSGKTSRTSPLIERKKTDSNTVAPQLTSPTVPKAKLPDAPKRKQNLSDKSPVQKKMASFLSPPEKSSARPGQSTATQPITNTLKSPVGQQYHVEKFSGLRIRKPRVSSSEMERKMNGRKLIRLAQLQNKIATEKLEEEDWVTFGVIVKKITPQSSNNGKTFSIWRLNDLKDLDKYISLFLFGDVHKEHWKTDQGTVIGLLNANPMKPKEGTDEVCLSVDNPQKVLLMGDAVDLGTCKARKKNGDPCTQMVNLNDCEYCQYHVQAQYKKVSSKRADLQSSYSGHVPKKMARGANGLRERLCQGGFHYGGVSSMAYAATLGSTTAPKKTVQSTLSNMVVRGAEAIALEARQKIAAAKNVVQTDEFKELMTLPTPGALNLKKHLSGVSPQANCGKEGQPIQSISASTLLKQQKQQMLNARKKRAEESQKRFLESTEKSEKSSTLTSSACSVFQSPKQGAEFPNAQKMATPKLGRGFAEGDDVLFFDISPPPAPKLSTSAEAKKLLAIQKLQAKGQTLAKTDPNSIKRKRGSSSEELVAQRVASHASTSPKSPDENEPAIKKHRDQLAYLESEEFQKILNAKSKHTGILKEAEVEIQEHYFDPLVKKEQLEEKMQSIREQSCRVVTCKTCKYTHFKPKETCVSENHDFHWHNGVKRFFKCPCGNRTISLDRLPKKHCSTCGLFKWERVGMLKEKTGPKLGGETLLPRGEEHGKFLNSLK

T3: hMcm10-ID (Homo sapiens, UniProt Q7L590)
T3 construct: hMcm10-ID (residues 237 to 436) were expressed in E. coli strain BL21(DE3); 6xHis (HRV 3C site) (N, cleaved yes); made in house; host or cells: E. coli BL21(DE3)
T3 sequence (Q7L590 237-436): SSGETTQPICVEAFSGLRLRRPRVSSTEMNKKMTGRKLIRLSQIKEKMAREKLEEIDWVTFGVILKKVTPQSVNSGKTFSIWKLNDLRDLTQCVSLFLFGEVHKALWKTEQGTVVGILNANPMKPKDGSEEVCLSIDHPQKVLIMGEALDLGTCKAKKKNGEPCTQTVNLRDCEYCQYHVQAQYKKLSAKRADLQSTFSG

T4: xMcm10-ID (Xenopus laevis, UniProt Q5EAW4 229-427)
T4 sequence: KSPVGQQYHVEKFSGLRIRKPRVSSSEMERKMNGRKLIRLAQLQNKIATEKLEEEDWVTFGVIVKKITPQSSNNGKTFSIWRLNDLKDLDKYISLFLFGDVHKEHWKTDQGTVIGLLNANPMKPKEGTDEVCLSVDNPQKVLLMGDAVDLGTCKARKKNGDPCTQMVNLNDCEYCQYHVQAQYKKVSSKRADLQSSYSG

T5: hMcm10-ID (Homo sapiens, UniProt Q7L590 237-436)
T5 sequence: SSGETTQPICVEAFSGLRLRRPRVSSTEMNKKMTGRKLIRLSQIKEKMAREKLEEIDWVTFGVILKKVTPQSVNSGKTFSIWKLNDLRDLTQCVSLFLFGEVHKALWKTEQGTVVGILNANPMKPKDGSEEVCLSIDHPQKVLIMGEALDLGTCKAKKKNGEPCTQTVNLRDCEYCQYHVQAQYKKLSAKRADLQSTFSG

T6: xMcm10-FL (Xenopus laevis, UniProt Q5EAW4 1-860)
T6 sequence: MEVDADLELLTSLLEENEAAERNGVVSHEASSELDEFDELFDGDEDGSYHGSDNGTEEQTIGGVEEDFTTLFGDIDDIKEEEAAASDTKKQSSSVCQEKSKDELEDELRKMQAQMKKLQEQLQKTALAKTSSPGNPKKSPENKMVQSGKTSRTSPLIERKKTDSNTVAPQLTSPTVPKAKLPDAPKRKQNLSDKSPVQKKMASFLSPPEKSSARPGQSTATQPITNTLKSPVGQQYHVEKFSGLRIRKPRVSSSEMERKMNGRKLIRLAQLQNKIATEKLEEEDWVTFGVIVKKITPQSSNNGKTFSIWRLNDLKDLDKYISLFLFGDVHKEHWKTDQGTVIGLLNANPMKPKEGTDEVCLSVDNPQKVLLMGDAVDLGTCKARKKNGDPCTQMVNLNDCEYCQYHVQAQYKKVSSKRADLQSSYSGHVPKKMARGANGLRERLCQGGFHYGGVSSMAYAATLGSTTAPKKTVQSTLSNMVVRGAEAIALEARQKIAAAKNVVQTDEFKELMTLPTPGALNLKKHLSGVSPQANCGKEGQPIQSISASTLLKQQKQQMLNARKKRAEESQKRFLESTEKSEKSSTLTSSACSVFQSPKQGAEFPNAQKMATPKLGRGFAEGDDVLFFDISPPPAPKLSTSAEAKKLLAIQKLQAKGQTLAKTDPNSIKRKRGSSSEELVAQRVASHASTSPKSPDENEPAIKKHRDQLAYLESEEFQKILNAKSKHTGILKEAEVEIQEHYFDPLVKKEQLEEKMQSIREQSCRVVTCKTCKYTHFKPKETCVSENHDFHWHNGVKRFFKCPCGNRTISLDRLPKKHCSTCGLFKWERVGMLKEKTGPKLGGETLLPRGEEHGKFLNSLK


Assays:
[1] = biological target: T1, human Mcm10 internal domain (hMcm10-ID); test: Fluorescence polarization competition assay, displacement of 5′-6FAM 10-mer ssDNA probe from hMcm10-ID; type: binding; conditions: mean ± s.e.m., n ≥ 3; hMcm10-ID 1 μM, probe 12.5 nM
Experimental: (§1) A fluorescence polarization (FP) HTS assay was established to detect inhibitors of the binding of the 5′-6FAM 10-mer oligo probe to Mcm10. Test compounds dissolved in DMSO were added to 384-well plates (Corning 4514) using an Echo 550 acoustic dispenser (final DMSO 0.1%) to achieve a final single point screening concentration of 10 µM. Then 10 µl of 2× Xenopus internal domain Mcm10 (xMcm10-ID, final concentration 2 µM) in binding buffer (20 mM Tris HCl, 100 mM NaCl, 5% glycerol, and 0.01% triton, pH 7.5) was added using the Combi nL Multidrop dispenser. Finally, 10 µl of 2× 5′-6FAM DNA (final 12.5 nM) in binding buffer was added using the Multidrop. DMSO (0.1%, high signal) and probe only (low signal) controls were included on every plate. Plates were mixed for 2 min, incubated for 60 min at RT in the dark, and read on a CLARIOstar multimode plate reader (excitation: 482-16, emission: 530-40, dichroic filter: LP504).
(§2) The LOPAC pilot screen identified the sulfhydryl reagent 4-chloromercuribenzoic acid as an inhibitor in the fluorescence polarization (FP) assay. As there was no known Mcm10 inhibitor, 4-chloromercuribenzoic acid (30 μM) was used as a positive control on initial screening plates. Following the discovery of suramin as a Mcm10 inhibitor, suramin (7 μM) was used as a positive control on subsequent screening plates. To confirm activity, screening hits were tested in dose response experiments (8 concentrations in duplicate) using xMcm10-ID. Similar dose response experiments were conducted with suramin and its analogs to confirm activity for hMcm10-ID (1 μM) and xMcm10-FL (2 μM) and to determine selectivity relative to RPA70AB (0.4 μM). Saturation experiments for each protein were conducted using increasing concentrations of protein with a fixed probe concentration (12.5 nM). FP was measured in mP units, and ∆mP values for each well were calculated as the difference between the measured mP and the average of the “probe only” controls. […] The parallel and perpendicular mP values were also used to calculate total fluorescence intensity (TFI) determined by the sum of parallel mP + (2 x perpendicular mP). TFI was used to detect fluorescence interference by compounds [1]. […] IC50 values were calculated using the four parameter logistic equation in Prism 6.0 (GraphPad). Ki values were obtained using an online Ki calculator according to the equations of Nikolovska-Coleska (http://sw16.im.med.umich.edu/soft-ware/calc_ki/). KD values were calculated using the one site or two site binding equations in Prism 6.0 (GraphPad).

[2] = biological target: T2, full-length Xenopus Mcm10 (xMcm10-FL); test: Fluorescence polarization competition assay, displacement of 5′-6FAM ssDNA probe from xMcm10-FL; type: binding; conditions: averages of n = 2; xMcm10-FL 2 μM
Experimental: as §1, §2

[3] = biological target: T7, human RPA70AB (A and B DNA binding domains of RPA70) (Homo sapiens, UniProt P27694); test: Fluorescence polarization competition assay, displacement of 5′-6FAM ssDNA probe from RPA70AB
T7 construct: recombinant human RPA70AB (181-422) in a pSV281 vector; 6xHis (TEV site) (N, cleaved yes); made in house; host or cells: Escherichia coli BL21(DE3)
Experimental: as §1, §2

hMcm10-ID [4] = biological target: T3, hMcm10-ID; test: Surface plasmon resonance binding kinetics on immobilized hMcm10-ID (Biacore S200)
Experimental: SPR experiments were performed using a Biacore S200 (GE Healthcare) equipped with a research-grade CM5 sensor chip. hMcm10-ID, at a concentration of 15 µg ml^−1 in 10 mM sodium acetate, pH 4.5, […], using an amine coupling kit (GE Healthcare) to either flow cell 2 or 4 following manufacturer directions. The reference flow cell (either flow cell 1 or 3) was left untreated. All compounds were dissolved in running buffer (10 mM PBS, 150 mM NaCl, 0.005% P20, pH 7.4) prior to injection over the chip surface at a flow rate of 30 µl min^−1 and at a temperature of 25°C. Zero concentration samples were injected for double referencing. Data were collected at a rate of 40 Hz and were fitted to a simple 1 : 1 interaction model (unless otherwise noted) using the global data analysis within the Biacore S200 evaluation software.

xMcm10-ID = biological target: T4, xMcm10-ID; test: fluorescence polarization; FP: 20 mM Tris-HCl, 100 mM NaCl, 5% glycerol, 0.01% Triton, pH 7.5, RT 60 min, 12.5 nM probe (0.1% DMSO in HTS); conditions: protein: recombinant; label: 5'-6-FAM; single strand
hMcm10-ID [5] = biological target: T5, hMcm10-ID; test: as above; conditions: protein: recombinant; label: 5'-6-FAM; single strand
RPA70AB = RPA70AB (Homo sapiens, UniProt P27694 181-422); test: as above; conditions: protein: recombinant; label: 5'-6-FAM; single strand
xMcm10-FL = biological target: T6, xMcm10-FL; test: as above; conditions: protein: recombinant; label: 5'-6-FAM; single strand

T7 sequence (P27694 181-422): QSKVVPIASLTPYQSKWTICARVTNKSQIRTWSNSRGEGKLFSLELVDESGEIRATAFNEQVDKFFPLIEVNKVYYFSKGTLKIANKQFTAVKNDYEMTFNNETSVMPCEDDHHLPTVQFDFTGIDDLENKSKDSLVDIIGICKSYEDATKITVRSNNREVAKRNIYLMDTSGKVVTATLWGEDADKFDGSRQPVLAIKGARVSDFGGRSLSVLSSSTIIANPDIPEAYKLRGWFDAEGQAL
RPA70AB, sequence (P27694 181-422): as above

Ki [1] [nM] | Ki [2] [nM] | selectivity for hMcm10 over RPA70AB ([3]; FP) | IC50 ([3]; below lower limit of the sensitivity of the assay, read-out: IC50 value for the high affinity component, hRPA70AB) [nM] | Ki ([3]; predominant low-affinity (or only) component, mean ± s.e.m., n ≥ 3, read-out: fluorescence polarization hRPA70AB Ki2) [µM] | selectivity RPA/ hMcm10 ([3]; ratio of hRPA70AB Ki2 to hMcm10-ID Ki (FP)) | surface plasmon resonance hMcm10-ID kd (hMcm10-ID [4]; 1:1 model, 6000–8000 RU, 25°C) [s^−1] | kon (hMcm10-ID [4]; 1:1 model, 6000–8000 RU, 25°C, read-out: surface plasmon resonance hMcm10-ID ka) [M⁻¹ s⁻¹] | Kd (hMcm10-ID [4]; calculated from association and dissociation rate constants, 1:1 model, 6000–8000 RU, read-out: surface plasmon resonance hMcm10-ID kinetic KD) [nM] | SPR binding kinetics (description of sensorgrams) (hMcm10-ID [4]; immobilized hMcm10-ID) | Molecule | Kd (xMcm10-ID) [nM] | Kd (hMcm10-ID [5]) [nM] | Kd (RPA70AB) [nM] | Kd (xMcm10-FL) [nM]
440 ± 40 | 1900 | more than 10 fold | 93 | 14 ± 0.4 | 32 | 0.59 ± 0.10 | 780000 ± 1e+09 | 740 ± 130 | predominantly rapid kinetics | O=C(Nc1cc(C(=O)Nc2ccc(S(=O)(=O)O)cc2S(=O)(=O)O)cc(C(=O)Nc2ccc(S(=O)(=O)O)cc2S(=O)(=O)O)c1)Nc1cc(C(=O)Nc2ccc(S(=O)(=O)O)cc2S(=O)(=O)O)cc(C(=O)Nc2ccc(S(=O)(=O)O)cc2S(=O)(=O)O)c1 [NF449] | – | – | – | –
– | – | – | – | – | – | – | – | – | – | ATGGTAGGCA (ssDNA) [5'-6FAM 10-mer] | 1300 | 2290 | 370 | 1100

From publication PMC6731595, “The anti-parasitic agent suramin and several of its analogues are inhibitors of the DNA binding protein Mcm10” (Open Biology, 2019)
